From US20250154134A1, “COMPOUND AS FAK INHIBITOR AND USE THEREOF” (WIGEN BIOMEDICINE TECHNOLOGY (SHANGHAI) CO., LTD., priority 2022, published 2025)

Key:
FAK recombinant protein = FAK recombinant protein (Homo sapiens (Human), UniProt Q05397); experiment: Inhibitory activity against FAK enzyme (HTRF, TK substrate); assay type: biochemical
Protocol: A compound serially diluted with DMSO was mixed with a FAK recombinant protein. After the mixture was left to stand at room temperature for 10 min, a biotin-labeled TK substrate (TK) and ATP were added. […] The inhibition percentage and IC50 of the compound were calculated compared to the DMSO control group.

PC3 cells [1] = experiment: PC3 cell proliferation, 2D activity assay (Cell Titer-Lumi, 72 h); assay type: cell-based, human; details: Homo sapiens, PC-3, read-out: 2D inhibitory activity against PC3 cells IC50
Protocol: (§1) 2D activity assay: 1200 PC3 cells were seeded in a 96-well plate. After overnight adherence culture, A compound serially diluted was added. […] The growth of the cells was evaluated, and the IC50 of the compound inhibiting cell growth was calculated. 3D activity assay: PC3 cells were seeded in a 96-well plate at 1200 cells/well, and 3D culture was performed. 14 days after a compound serially diluted was added, the growth of the cells was measured. The inhibition percentage and IC50 of the compound were calculated compared to the DMSO control group.

PC3 cells [2] = experiment: PC3 cell proliferation, 3D activity assay (3D culture, 14 days); assay type: cell-based, human; details: Homo sapiens, PC-3, 336 h, read-out: 3D inhibitory activity against PC3 cells IC50
Protocol: as §1

Chain of FAK recombinant protein (Q05397 whole entry): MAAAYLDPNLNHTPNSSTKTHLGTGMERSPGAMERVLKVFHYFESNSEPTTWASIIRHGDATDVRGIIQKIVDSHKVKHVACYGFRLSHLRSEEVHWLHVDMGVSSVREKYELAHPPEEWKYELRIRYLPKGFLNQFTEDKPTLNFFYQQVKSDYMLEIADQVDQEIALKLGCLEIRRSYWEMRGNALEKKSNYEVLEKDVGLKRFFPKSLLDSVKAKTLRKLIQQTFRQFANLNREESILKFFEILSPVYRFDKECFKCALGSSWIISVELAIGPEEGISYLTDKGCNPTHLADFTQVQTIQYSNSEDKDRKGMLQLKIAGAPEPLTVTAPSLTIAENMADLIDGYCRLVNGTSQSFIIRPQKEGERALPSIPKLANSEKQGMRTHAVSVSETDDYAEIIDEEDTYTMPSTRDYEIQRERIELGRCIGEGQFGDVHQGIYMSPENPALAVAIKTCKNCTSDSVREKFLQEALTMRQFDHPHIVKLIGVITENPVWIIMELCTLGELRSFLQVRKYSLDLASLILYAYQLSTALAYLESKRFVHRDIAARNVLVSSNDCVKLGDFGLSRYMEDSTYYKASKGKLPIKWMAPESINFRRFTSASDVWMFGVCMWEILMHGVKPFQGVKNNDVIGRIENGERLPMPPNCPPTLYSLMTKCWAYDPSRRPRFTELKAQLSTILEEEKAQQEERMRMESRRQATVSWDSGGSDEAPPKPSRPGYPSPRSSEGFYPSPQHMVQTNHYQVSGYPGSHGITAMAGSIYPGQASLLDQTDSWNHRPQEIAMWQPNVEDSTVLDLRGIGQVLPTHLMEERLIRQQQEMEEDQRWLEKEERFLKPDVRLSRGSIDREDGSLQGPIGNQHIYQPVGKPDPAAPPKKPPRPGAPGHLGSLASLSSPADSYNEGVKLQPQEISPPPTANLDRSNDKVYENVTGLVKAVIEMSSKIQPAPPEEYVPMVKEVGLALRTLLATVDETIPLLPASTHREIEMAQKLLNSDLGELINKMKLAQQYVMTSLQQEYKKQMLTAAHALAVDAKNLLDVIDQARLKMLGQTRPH

Structure (SMILES) | IC50 (FAK recombinant protein) | IC50 (PC3 cells [1]) | IC50 (PC3 cells [2])
COc1cc(C(=O)N2CCC23CCN(C)CC3)ccc1Nc1ncc(C(F)(F)F)c(Oc2cccc3c2C(=O)N(C)C32CC2)n1 [Compound 59] | < 20 nM | > 2000 nM | 5 to 50 nM
COc1cc(C(=O)N2CCC3(CCN(C)CC3)C2)ccc1Nc1ncc(C(F)(F)F)c(Oc2cccc3c2C(=O)N(C)C32CC2)n1 [Compound 60] | < 20 nM | > 2000 nM | 5 to 50 nM
COc1cc(C(=O)N2CCC3(CCCN(C)C3)C2)ccc1Nc1ncc(C(F)(F)F)c(Oc2cccc3c2C(=O)N(C)C32CC2)n1 (stereo not drawn) [Compound 61] | < 20 nM | > 2000 nM | 5 to 50 nM
COc1cc(N2CCC3(CCN(C)CC3)C2=O)ccc1Nc1ncc(C(F)(F)F)c(Oc2cccc3c2C(=O)N(C)C32CC2)n1 [Compound 62] | < 20 nM | > 2000 nM | 5 to 50 nM
COc1cc(N2CC3(CCN(C)CC3)CC2=O)ccc1Nc1ncc(C(F)(F)F)c(Oc2cccc3c2C(=O)N(C)C32CC2)n1 [Compound 63] | < 20 nM | > 2000 nM | < 5 nM
COc1cc(N2CC3(CCN(C)CC3)OC2=O)ccc1Nc1ncc(C(F)(F)F)c(Oc2cccc3c2C(=O)N(C)C32CC2)n1 [Compound 64] | < 20 nM | > 2000 nM | 5 to 50 nM
COc1cc(N2CC3(CCN(C)C3)OC2=O)ccc1Nc1ncc(C(F)(F)F)c(Oc2cccc3c2C(=O)N(C)C32CC2)n1 (stereo not drawn) [Compound 65] | < 20 nM | > 2000 nM | < 5 nM
COc1cc(N2CC3(CCC2=O)CCN(C)CC3)ccc1Nc1ncc(C(F)(F)F)c(Oc2cccc3c2C(=O)N(C)C32CC2)n1 [Compound 66] | < 20 nM | > 2000 nM | > 50 nM
COc1cc(N2CC3(CCN(C)C3)OCC2=O)ccc1Nc1ncc(C(F)(F)F)c(Oc2cccc3c2C(=O)N(C)C32CC2)n1 (stereo not drawn) [Compound 67] | < 20 nM | > 2000 nM | 5 to 50 nM
COc1cc(C2=NOC3(CCN(C)CC3)C2)ccc1Nc1ncc(C(F)(F)F)c(Oc2cccc3c2C(=O)N(C)C32CC2)n1 [Compound 68] | < 20 nM | > 2000 nM | > 50 nM
CN1C(=O)c2c(Oc3nc(Nc4ccc5c(c4)CNC5=O)ncc3C(F)(F)F)cccc2C12CC2 [Compound 70] | < 20 nM | > 2000 nM | > 50 nM
CN1CCC(N2C(=O)Cc3cc(Nc4ncc(C(F)(F)F)c(Oc5cccc6c5C(=O)N(C)C65CC5)n4)ccc32)CC1 [Compound 72] | < 20 nM | > 2000 nM | < 5 nM
COc1cc(N2CCNCC2)ccc1Nc1ncc(C(F)(F)F)c(Oc2cccc3c2C(=O)N(C)C32CC2)n1 [Compound 74, 4′-((2-((2-methoxy-4-(piperazin-1-yl)phenyl)amino)-5-(trifluoromethyl)pyrimidin-4-yl)oxy)-2′-methylspiro[cyclopropane-1,1′-isoindolin]-3′-one] | < 20 nM | > 2000 nM | 5 to 50 nM
COc1cc(N2CCN(CC(=O)N(C)C)CC2)ccc1Nc1ncc(C(F)(F)F)c(Oc2cccc3c2C(=O)N(C)C32CC2)n1 [Compound 75, 2-(4-(3-methoxy-4-((4-((2′-methyl-3′-oxospiro[cyclopropane-1,1′-isoindolin]-4′-yl)oxy)-5-(trifluoromethyl)pyrimidin-2-yl)amino)phenyl)piperazin-1-yl)-N,N-dimethylacetamide] | < 20 nM | > 2000 nM | < 5 nM
COCCN1CCN(c2ccc(Nc3ncc(C(F)(F)F)c(Oc4cccc5c4C(=O)N(C)C54CC4)n3)c(OC)c2)CC1 [Compound 76, 4′-((2-((2-methoxy-4-(4-(2-methoxyethyl)piperazin-1-yl)phenyl)amino)-5-(trifluoromethyl)pyrimidin-4-yl)oxy)-2′-methylspiro[cyclopropane-1,1′-isoindolin]-3′-one] | < 20 nM | > 2000 nM | < 5 nM
COc1cc(CN(C)C)ccc1Nc1ncc(C(F)(F)F)c(Oc2cccc3c2C(=O)N(C)C32CC2)n1 [Compound 80] | < 20 nM | > 2000 nM | 5 to 50 nM
COc1cc(CN2CCCC2)ccc1Nc1ncc(C(F)(F)F)c(Oc2cccc3c2C(=O)N(C)C32CC2)n1 [Compound 81] | < 20 nM | > 2000 nM | 5 to 50 nM
COc1cc(N2CCN(C)CC2=O)ccc1Nc1ncc(C(F)(F)F)c(Oc2cccc3c2C(=O)N(C)C32CC2)n1 [Compound 83] | < 20 nM | > 2000 nM | > 50 nM
COc1cc(C2CCN(C)CC2)ccc1Nc1ncc(C(F)(F)F)c(Oc2cccc3c2C(=O)N(C)C32CC2)n1 [Compound 84] | < 20 nM | > 2000 nM | < 5 nM
CN1CCN(c2ccc(Nc3ncc(C(F)(F)F)c(Oc4cccc5c4C(=O)N(C)C54CC4)n3)nc2)CC1 [Compound 85] | < 20 nM | > 2000 nM | 5 to 50 nM
COc1cc2c(cc1Nc1ncc(C(F)(F)F)c(Oc3cccc4c3C(=O)N(C)C43CC3)n1)CN(C)CC2 [Compound 86] | < 20 nM | > 2000 nM | 5 to 50 nM
